≈ marks a conversion by molar mass, not a printed value.
Columns and labels:
[1] = AUClast in Swiss mouse plasma at 3 mg/kg, iv measured upto 24 hrs by LC-MS/MS analysis; assay type: ADME, organism-based; parameters: time < 24 hrs, dose 3 mg/kg, route iv
Escherichia coli [2] = experiment: Antibacterial activity against Escherichia coli ATCC 35218 harboring SbmA assessed as reduction in microbial growth incubated for 20 to 22 hrs by CLSI based analysis; assay type: functional; conditions: time 20-22 hrs
Klebsiella pneumoniae [3] = experiment: Antibacterial activity against Klebsiella pneumoniae ATCC 13883 harboring SbmA assessed as reduction in microbial growth incubated for 20 to 22 hrs by CLSI based analysis; assay type: functional; conditions: time 20-22 hrs
Acinetobacter baumannii = experiment: Antibacterial activity against multidrug-resistant Acinetobacter baumannii R835 assessed as bacterial growth inhibition incubated for 20 to 22 hrs by CLSI based analysis; assay type: functional; conditions: time 20-22 hrs
[4] = Ratio of AUC in Lung to plasma in Swiss mouse at 3 mg/kg, iv measured upto 24 hrs by LC-MS/MS analysis; assay type: ADME, organism-based; conditions: read-out: Ratio AUC
[5] = Metabolic stability in mouse lung assessed as parent compound remaining measured after 1 hrs by UPLC-MS analysis; assay type: ADME, tissue-based; conditions: mouse lung, read-out: Stability
Proteus mirabilis = experiment: Antibacterial activity against multidrug-resistant Proteus mirabilis ATCC 7002 assessed as bacterial growth inhibition incubated for 20 to 22 hrs by CLSI based analysis; assay type: functional; conditions: time 20-22 hrs
Klebsiella pneumoniae [6] = experiment: Antibacterial activity against multidrug-resistant Klebsiella pneumoniae BAA2146 assessed as bacterial growth inhibition incubated for 20 to 22 hrs by CLSI based analysis; assay type: functional; conditions: time 20-22 hrs
[7] = Toxicity in Swiss albino mouse at 10 mg/kg, iv measured after 1 hr; assay type: organism-based; conditions: in vivo
[8] = Metabolic stability in mouse kidney assessed as parent compound remaining measured after 4 hrs by UPLC-MS analysis; assay type: ADME, tissue-based; conditions: read-out: Stability
[9] = Metabolic stability in mouse lung assessed as parent compound remaining measured after 4 hrs by UPLC-MS analysis; assay type: ADME, tissue-based; conditions: mouse lung, read-out: Stability
[10] = Observed clearance Swiss mouse at 3 mg/kg, iv measured upto 24 hrs by LC-MS/MS analysis; assay type: ADME, organism-based; conditions: in vivo
Providencia stuartii = experiment: Antibacterial activity against multidrug-resistant Providencia stuartii ATCC 49809 assessed as bacterial growth inhibition incubated for 20 to 22 hrs by CLSI based analysis; assay type: functional; conditions: time 20-22 hrs
Klebsiella pneumoniae [11] = experiment: Antibacterial activity against multidrug-resistant Klebsiella pneumoniae NCTC 13443 assessed as bacterial growth inhibition incubated for 20 to 22 hrs by CLSI based analysis; assay type: functional; conditions: time 20-22 hrs
Pseudomonas aeruginosa [12] = experiment: Antibacterial activity against multidrug-resistant Pseudomonas aeruginosa PAO1 assessed as bacterial growth inhibition incubated for 20 to 22 hrs by CLSI based analysis; assay type: functional; conditions: time 20-22 hrs
Escherichia coli [13] = experiment: Antibacterial activity against Escherichia coli UT189 infected in Swiss albino mouse model of urinary tract infection assessed as log reduction in bacteremia in kidney at 10 mg/kg, iv pre-infected with bacteria for 24 hrs followed by compound treatment for every 24 hrs for 3 days; assay type: functional; conditions: time 3 day
Escherichia coli [14] = experiment: Antibacterial activity against Escherichia coli UT189 infected in Swiss albino mouse model of urinary tract infection assessed as log reduction in bacteremia in urine at 10 mg/kg, iv pre-infected with bacteria for 24 hrs followed by compound treatment for every 24 hrs for 3 days; assay type: functional; conditions: time 3 day
Pseudomonas aeruginosa [15] = experiment: Antibacterial activity against multidrug-resistant Pseudomonas aeruginosa PAO750 assessed as bacterial growth inhibition incubated for 20 to 22 hrs by CLSI based analysis; assay type: functional; conditions: time 20-22 hrs
Escherichia coli [16] = experiment: Antibacterial activity against multidrug-resistant Escherichia coli MG1655 harboring tolC mutant assessed as bacterial growth inhibition incubated for 20 to 22 hrs by CLSI based analysis; assay type: functional; conditions: time 20-22 hrs

CO[C@@H](CNC(=O)[C@H](NC(=O)[C@H](O)[C@H](C)O)[C@H](O)c1cncn1C)[C@H](O)[C@H](O)C(=O)N(C)[C@@H](Cc1ccccc1)C(=O)NCC(=O)N[C@H](C(=O)N[C@@H](CO)C(=O)N[C@H](C(=O)N[C@H](C(=O)N[C@@H](CC(=O)O)C(=O)N1CCC[C@H]1C(=O)NCc1cc(=O)c(O)cn1O)C(C)(C)C)C(C)(C)O)C(C)(C)O
AUC(0-t) at 24 h [1]: 2860 ng·h/mL | MIC (Escherichia coli [2]): 0.12 µg/mL | MIC (Klebsiella pneumoniae [3]): 16 µg/mL | MIC (Acinetobacter baumannii): 0.06 µg/mL (≈ 0.0415 µM) | Kp at 24 h [4]: 0.4 | remaining at 1 h [5]: 100% | MIC (Proteus mirabilis): 0.12 µg/mL (≈ 0.0829 µM) | MIC (Klebsiella pneumoniae [6]): 0.12 µg/mL (≈ 0.0829 µM) | Activity [7]: Non-Toxic | remaining at 4 h [8]: 91% | remaining at 4 h [9]: 80% | clearance [10]: 13.5 mL/min/kg | MIC (Providencia stuartii): 0.06 µg/mL (≈ 0.0415 µM) | MIC (Klebsiella pneumoniae [11]): 2 µg/mL (≈ 1.38 µM) | MIC (Pseudomonas aeruginosa [12]): > 32 µg/mL | log(activity) (Escherichia coli [13]): 3.6 | log(activity) (Escherichia coli [14]): 4.7 | MIC (Pseudomonas aeruginosa [15]): 32 µg/mL (≈ 22.1 µM) | MIC (Escherichia coli [16]): 0.01 µg/mL (≈ 0.00691 µM)

From ChEMBL document CHEMBL5356971, “Optimization of the Antibacterial Spectrum and the Developability Profile of the Novel-Class Natural Product Corramycin” (J Med Chem, 2023)
